Measured values published in patent US20170239323A1, “ORITAVANCIN FORMULATIONS” (The Medicines Company, priority 2016, published 2017).
Where two headings read alike, the source gives them in different places.

Assays:
[1] = Reconstitution of Orbactiv 400 mg vial with aqueous HPCD: time to dissolve, pH and visual observation on storage; assay type: physicochemical; conditions: for visible precipitation: over 24 hours; for time to go into solution (clear, colorless solution): 57.14 mg/mL; for pH: oritavancin 50 mg/mL
Protocol: Reconstituting Orbactiv 400 mg (Oritavancin) with 50% HPCD. 5.915 g of HPCD was dissolved in 11.83 mL of water to make a 50 wt % aqueous solution. 8 mL of the 50% HPCD solution was added to a 400 mg vial of Orbactiv for a target oritavancin concentration of 50 mg/mL. […] The pH was measured and the solution was stored at room temperature, protected from light, and observed over 24 hours for signs of precipitation (Table 1).
Reconstituting Orbactiv 400 mg (Oritavancin) in 20% w/v HPCD aqueous solution. 3.095 g HPCD was dissolved in 15.474 mL water to make a 20% w/v solution (pH=6.05). 8 mL of the 20% w/v HPCD solution was added to a 400 mg vial of Orbactiv for a target oritavancin concentration of 50 mg/mL. […] The pH was measured and the solution was stored at room temperature, protected from light, and observed over 24 hours for signs of precipitation (Table 3).
Reconstituting Orbactiv 400 mg (Oritavancin) in 50% w/v HPCD aqueous solution, adjusting pH then diluting in saline. 6.269 g of HPCD was dissolved in 12.538 mL of water to make a 50% w/v solution (pH=7.23). Seven (7) mL of the 50% w/v solution was added to a 400 mg vial of Orbactiv for a target oritavancin concentration of 57.14 mg/mL. […] A 2 mL aliquot of 57.14 mg/mL was removed from the vial and placed in a small glass vial. The pH was adjusted to 6.5 using 1N NaOH. NaOH was added to the oritavancin solution in 5 μL increments and vortexed. Visual observations and pH were recorded (Table 6).
(§1) Reconstituting Orbactiv 400 mg (Oritavancin) in 50% w/v aqueous HPCD, adjusting pH then diluting in saline. 6.112 g of HPCD was dissolved in 12.224 mL of water to make a 50% w/v solution (pH=6.74). Seven (7) mL of the 50% w/v HPCD solution was added to a 400 mg vial of Orbactiv for a target oritavancin concentration of 57.14 mg/mL. […] A 3 mL aliquot of 57.14 mg/mL was removed from the vial and placed in a small glass vial. The pH was adjusted to 7 using 1N NaOH. NaOH was added to the oritavancin solution in 5 μL increments and vortexed. Visual observations and pH were recorded (Table 8).
as §1, with “20%” for “50%”, “3.555” for “6.112”, “17.775” for “12.224”, “(pH=6.88).” for “(pH=6.74).”, “recorded.” for “recorded”, “10).” for “8).”
Reconstituting Orbactiv 400 mg (Oritavancin) in 20% w/v aqueous HPCD then diluting in Hank's Balanced Salt Solution (HBSS). 2.641 g of HPCD was dissolved in 13.205 mL of water to make a 20% w/v solution (pH=6.70). Eight (8) mL of the 20% w/v solution was added to a 400 mg vial of Orbactiv for a target oritavancin concentration of 50 mg/mL. […] A 1.5 mL aliquot of 50 mg/mL was removed from the vial and placed in a small glass vial and pH measured. Diluted 2 mL of 50 mg/mL oritavancin solution in 8 mL of HBSS. Visual observations and pH were recorded. (Table 12).

[2] = Pharmacokinetics in ABSSSI patients after single 1200 mg IV oritavancin (ORBACTIV) in 1000 mL D5W; assay type: in vivo, human; conditions: plasma; for AUC(0-t) / half-life: iv, 1200 mg
Protocol: Oritavancin (as ORBACTIV®) was evaluated in double-blind, controlled ABSSSI clinical trials, which included 976 adult patients treated with a single 1200 mg intravenous dose of oritavancin in 1000 mL D5W. The formulation was prepared by adding 40 mL of sterile water for injection (WFI) to each of three 400 mg vials of ORBACTIV® to provide a 10 mg/mL solution per vial. Each vial was gently swirled to avoid foaming and ensure that all ORBACTIV powder was completely reconstituted in solution. […] The three solutions were combined and diluted to 1000 mL total volume with 5% dextrose in sterile water (D5W), to give a 1.2 mg/mL solution of oritavancin. The formulation was administered to each subject intravenously over 3 hours, and PK was measured (Table 20). The median age of patients treated with oritavancin was 45.6 years, ranging between 18 and 89 years of age with 8.8%≧65 years of age. Patients treated with oritavancin were predominantly male (65.4%), 64.4% were Caucasian, 5.8% were African American, and 28.1% were Asian. Safety was evaluated for up to 60 days after dosing.

[3] = radiolabeled PK study ADME-rpt-7-053r95; cited from earlier work
[4] = mean, ABSSSI subjects, single 1200 mg IV dose over 3 hours (n = 297)

## CN[C@H](CC(C)C)C(=O)N[C@H]1C(=O)N[C@@H](CC(N)=O)C(=O)N[C@H]2C(=O)N[C@H]3C(=O)N[C@H](C(=O)N[C@H](C(=O)O)c4cc(O)cc(O)c4-c4cc3ccc4O)[C@H](O[C@H]3C[C@](C)(N)[C@@H](O)[C@H](C)O3)c3ccc(c(Cl)c3)Oc3cc2cc(c3O[C@@H]2O[C@H](CO)[C@@H](O)[C@H](O)[C@H]2O[C@H]2C[C@](C)(NCc3ccc(-c4ccc(Cl)cc4)cc3)[C@@H](O)[C@H](C)O2)Oc2ccc(cc2Cl)[C@H]1O [Oritavancin]
[1]; 50 mg/mL in 20% w/v HPCD solution
  visible precipitation: did not show any sign of visible precipitation
[1]; 50 mg/mL in 50% HPCD aqueous solution
  visible precipitation: did not show any sign of visible precipitation
[1]; 400 mg vial + 7 mL 20% w/v HPCD solution
  time to go into solution (clear, colorless solution): ≤ 5 min
[1]; 400 mg vial + 7 mL 20% w/v HPCD solution, listed as Orbactiv
  time to go into solution (clear, colorless solution): 5 min
[1]; 400 mg vial + 7 mL 50% w/v HPCD solution
  time to go into solution (clear, colorless solution): ≤ 5 min
[1]; 400 mg vial + 7 mL 50% w/v HPCD solution, listed as Orbactiv
  time to go into solution (clear, colorless solution): 5 min
[1]; reconstituted with 20% w/v aqueous HPCD, RT, 0 hr
  pH: 3.85
[1]; reconstituted with 20% w/v aqueous HPCD, RT, 24 hr
  pH: 4.17
[1]; reconstituted with 50% w/v HPCD in water, 0 hr
  pH: 3.94
[2]; both sexes, human, intravenous, 1200 mg dose in man, read-out: plasma exposure (AUC) in man
  AUC: ~2800 µg·h/mL
[2]; both sexes, human, mean, ABSSSI subjects, single 1200 mg IV dose over 3 hours (n = 297), read-out: AUC0-24
  AUC(0-t): 1110 µg·h/mL
[2]; both sexes, human, mean, ABSSSI subjects, single 1200 mg IV dose over 3 hours (n = 297), read-out: AUC0-72
  AUC(0-t): 1530 µg·h/mL
[2]; both sexes, human, mean, ABSSSI subjects, single 1200 mg IV dose over 3 hours (n = 297), read-out: T1/2,α (converted)
  half-life: 2.29 h
[2]; both sexes, human, mean, ABSSSI subjects, single 1200 mg IV dose over 3 hours (n = 297), read-out: T1/2,β (converted)
  half-life: 13.4 h
[2]; both sexes, human, mean, ABSSSI subjects, single 1200 mg IV dose over 3 hours (n = 297), read-out: T1/2,γ (converted)
  half-life: 245 h
[2]; both sexes, human, mean, ABSSSI subjects, single 1200 mg IV dose over 3 hours (n = 297), read-out: Vss
  Vd: 97.8 L
[2]; both sexes, human, per Orbactiv Package Insert (Comparative Example 4): 1200 mg IV, D5W, 3 h infusion
  AUC(0-inf): 2800 µg·h/mL
[2]; both sexes, human, per Orbactiv Package Insert (Comparative Example 4): 1200 mg IV, D5W, 3 h infusion, read-out: Cmax
  Cmax: 138 µg/mL
[2]; [4]
  AUC0-∞: 2800 µg·h/mL
  Cmax: 138 µg/mL
[3]
  plasma AUC relative to whole blood AUC: 1.59 ×
  whole blood AUC as percentage of plasma AUC: 62.8%
